Results from patent US6562796B2, “Derivatives of polyene macrolides and preparation and use thereof” (Micrologix Biotech Inc., priority 2000, dated 2003).
Marks after values point to notes of the source that are not given here.

Assays:
Candida albicans [1] = test: Minimum Inhibitory Concentration, broth dilution (NCCLS M27-A); type: cell-based
Procedure: Of course, compounds having MICs on the low end of these ranges, or even lower, are preferred. […] Toxicity is less of a concern for typical administration, as is water solubility.
(§1) For each compound Minimum Inhibitory Concentrations (MIC) were determined as described in Reference Method for Broth Dilution Antifungal Susceptibility Testing of Yeasts; Approved Standard; NCCLS document M27-A (ISBN 1-56238-328-0); NCCLS, 940 West Valley Road, Suite 1400, Wayne, Pa. 19087, 1997. […] Ten microliter samples were removed from the corresponding wells and deposited onto blood agar plates. Plates were incubated at 35° C. for 48 hours. The highest compound dilution at which no colonies are apparent on the plate was considered the MFC. Maximum non-lethal dose (NLD) data were also obtained for each product by initially intravenously administering a single 16 mg/kg dose to each of 4 mice in several groups. After review of findings, higher or lower doses were administered and a maximum non-lethal dose was determined. Ed50 data were also obtained for each compound. Efficacy was evaluated in mice injected with C. albicans. Therapeutic efficacy was defined as a 2 log reduction in kidney cfu relative to mean vehicle control.

Candida albicans [2] = test: Minimum Fungicidal Concentration, plating from MIC wells on blood agar; type: cell-based; settings: blood agar plates, 35° C., 48 hours
Procedure: as §1

rats = settings: compared with amphotericin B; cited from earlier work
dogs = settings: compared with amphotericin B; cited from earlier work
[3] = test system: patients with systemic fungal infections; settings: human, in vivo; cited from earlier work
C. albicans = test: Efficacy in mice injected with C. albicans (kidney cfu reduction); type: in vivo, Candida albicans; settings: for ED50: Candida albicans, mice injected with C. albicans, efficacy = 2 log reduction in kidney cfu relative to mean vehicle control, read-out: ED50 Kidney CFU Red.; for level of Candida albicans in the kidneys of mice (FIG. 1): treated mice, compared with AME
Procedure: as §1

mice [4] = settings: cited from earlier work
mice [5] = test: Maximum non-lethal dose, single intravenous dose in mice; type: in vivo
Procedure: as §1

Compound | Micro. Data (DLM/CJ) MIC (Candida albicans [1]) | Micro. Data (DLM/CJ) MFC (Candida albicans [2]) | acute, nephro and hepto toxicity (rats) | acute, nephro and hepto toxicity (dogs) | neurological toxicity in clinical trial [3] | ED50 (C. albicans) | NLD (maximum non-lethal dose), literature value (mice [4]) | Water Sol. (Water solubility) | NLD (maximum non-lethal dose) (mice [5]) | level of Candida albicans in the kidneys of mice (FIG. 1) (C. albicans)
COC(=O)[C@H]1[C@@H]2C[C@@H](O[C@@H]3O[C@H](C)[C@@H](O)[C@H](N)[C@@H]3O)/C=C/C=C/C=C/C=C/C=C/C=C/C=C/[C@H](C)[C@@H](O)[C@@H](C)[C@H](C)OC(=O)C[C@H](O)C[C@H](O)CC[C@@H](O)[C@H](O)C[C@H](O)C[C@](O)(C[C@@H]1O)O2 [AME, amphotericin B methyl ester] | 1 | 2 | lower acute, nephro and hepto toxicity than amphotericin B | lower acute, nephro and hepto toxicity than amphotericin B | many patients developed progressive neurological dysfunction associated with white matter degeneration |  |  |  |  | 
C[C@@H]1[C@H](O)[C@@H](C)/C=C/C=C/C=C/C=C/C=C/C=C/C=C/[C@H](O[C@@H]2O[C@H](C)[C@@H](O)[C@H](N)[C@@H]2O)C[C@@H]2O[C@](O)(C[C@@H](O)C[C@@H](O)[C@H](O)CC[C@@H](O)C[C@@H](O)CC(=O)O[C@H]1C)C[C@H](O)[C@H]2C(=O)O [AmB, amphotericin B, reference compound] | 0.5 | 2 |  |  |  | 3.58 mg/kg | 2-4* mg/kg | negligible |  | 
COC(=O)C1C2C[C@@H](OC3O[C@H](C)[C@@H](O)[C@H](NC[C@@]4(O)OC[C@@H](O)[C@H](O)[C@@H]4O)[C@@H]3O)/C=C/C=C/C=C/C=C/C=C/C=C/C=C/[C@H](C)[C@@H](O)[C@@H](C)[C@H](C)OC(=O)C[C@H](O)C[C@H](O)CC[C@@H](O)[C@H](O)C[C@H](O)C[C@](O)(C[C@@H]1O)O2 (stereo partly shown) [Compound C1, N-tagatopyranose-amphotericin B methyl ester] | 2 | 2 |  |  |  | < 3 mg/kg |  | >16 mg/mL | >64 mg/kg | significantly lower
COC(=O)C1C2C[C@@H](OC3O[C@H](C)[C@@H](O)[C@H](NC[C@@]4(O)OC[C@@H](O)[C@@H](OC5O[C@H](CO)[C@H](O)[C@H](O)[C@H]5O)[C@@H]4O)[C@@H]3O)/C=C/C=C/C=C/C=C/C=C/C=C/C=C/[C@H](C)[C@@H](O)[C@@H](C)[C@H](C)OC(=O)C[C@H](O)C[C@H](O)CC[C@@H](O)[C@H](O)C[C@H](O)C[C@](O)(C[C@@H]1O)O2 (stereo partly shown) [Compound C2] | 2 | 2 |  |  |  | < 3 mg/kg |  | >16 mg/mL | >64 mg/kg | significantly lower
